Reference: US11225474B2, “Crystalline salt forms of 3-(1,2,4-triazolo[4,3-a]pyridine-3-ylethynyl)-4-methyl-N-(4-((4-methylpiperazin-1-yl)methyl)-3-trifluoromethylphenyl)benzamide for medical application” (priority 2016, dated 2022)
Read-outs that look alike come from different tables or passages of the source.

What was measured:
CYP2C9 = CYP2C9 (Homo sapiens, UniProt P11712); assay: Metabolism study using cytochrome enzyme drugs; type: in vitro ADME; settings: 2C9
CYP2D6 = CYP2D6 (Homo sapiens, UniProt P10635); assay: Metabolism study using cytochrome enzyme drugs; type: in vitro ADME; settings: 2D6
SupB15 = assay: Cytotoxicity, Ph+ ALL model cell line; type: cell-based; settings: Homo sapiens, SUP-B15, read-out: IC50 (toxicity)
physchem [1] = settings: deionized water, thermodynamic from solid, Equilibrium solubility, HPLC analysis
BaF3/BCR-ABL = assay: Toxicity to transduced BaF3 model tumor cell line; type: cell-based, murine; settings: Mus musculus
EPHB2 = EPHB2 (Homo sapiens, UniProt P29323); assay: Human kinase panel at 100 nM; type: biochemical
BV-173 = assay: Cytotoxicity, Ph+ CML model cell line; type: cell-based; settings: Homo sapiens, read-out: IC50 (toxicity)
Gene toxicity: Ames test = type: cell-based; settings: all concentrations tested
CYP1A2 = CYP1A2 (Homo sapiens, UniProt P05177); assay: Metabolism study using cytochrome enzyme drugs; type: in vitro ADME
CYP2C8 = CYP2C8 (Homo sapiens, UniProt P10632); assay: Metabolism study using cytochrome enzyme drugs; type: in vitro ADME; settings: 2C8
[2] = Dissolution kinetics (USP Apparatus 1 Basket Method); type: physicochemical; settings: distilled water, 37±1° C., 118 mg salt
Protocol: During further studies of the polymorphous modifications of the methanesulfonic acid salt of 3-(1,2,4-triazolo[4,3-a]pyridine-3-ylethynyl)-4-methyl-N-(4-((4-methylpiperazine-1-yl)methyl)-3-trifluoromethylphenyl)benzamide, the kinetics of dissolution of the free base and the two methanesulfonic acid salt form polymorphous modifications was studied. Dissolution kinetics studies were performed using USP Apparatus 1 Basket Method (USP40, General Chapter <711>. Dissolution), dissolution media volume—700 mL, temperature—37±1° C. paddle stirrers' rotation rate—100 rpm. The test sample dissolution rate was calculated as an average of six repeats. Distilled water was used as the dissolution medium for the polymorphous modifications of 3-(1,2,4-triazolo[4,3-a]pyridine-3-ylethynyl)-4-methyl-N-(4-((4-methylpiperazine-1-yl)methyl)-3-trifluoromethylphenyl)benzamide methanesulfonic acid salt and, and a solution of 12.2 mL of methanesulfonic acid in 500 mL of water was used as the dissolution medium for the free base. Test portions containing 100 mg of 3-(1,2,4-triazolo[4,3-a]pyridine-3-ylethynyl)-4-methyl-N-(4-((4-methylpiperazine-1-yl)methyl)-3-trifluoromethylphenyl)benzamide or 118 mg of 3-(1,2,4-triazolo[4,3-a]pyridine-3-ylethynyl)-4-methyl-N-(4-((4-methylpiperazine-1-yl)methyl)-3-trifluoromethylphenyl)benzamide methanesulfonic acid salt (100 mg calculated as free base) were used for dissolution. In 780 minutes (13 hours) after the beginning of the test, pH of prepared solutions was measured.

KDR/VEGFR2 = KDR/VEGFR2 (Homo sapiens, UniProt P35968); assay: Human kinase panel at 100 nM; type: biochemical
Bcr-Abl (M351T) = Bcr-Abl (M351T) (Homo sapiens, UniProt P00519, M351T, form not given); assay: Bcr-Abl tyrosine kinase enzyme activity
Bcr-Abl (E255K) = Bcr-Abl (E255K) (Homo sapiens, UniProt P00519, E255K, form not given); assay: Bcr-Abl tyrosine kinase enzyme activity
physchem [3] = type: physicochemical
Bcr-Abl (Q252H) = Bcr-Abl (Q252H) (Homo sapiens, UniProt P00519, Q252H, form not given); assay: Bcr-Abl tyrosine kinase enzyme activity
in vivo = type: in vivo; settings: mice
rats = assay: Acute toxicity studies, rats; type: in vivo
Bcr-Abl (F317I) = Bcr-Abl (F317I) (Homo sapiens, UniProt P00519, F317I, form not given); assay: Bcr-Abl tyrosine kinase enzyme activity
CYP3A4 = CYP3A4 (Homo sapiens, UniProt P08684); assay: Metabolism study using cytochrome enzyme drugs; type: in vitro ADME
[4] = Drug distribution in rat tissues; type: in vivo
[5] = Stability, 7 days at T = 60° C.; type: physicochemical

Chain of KDR/VEGFR2 (P35968 20-1356): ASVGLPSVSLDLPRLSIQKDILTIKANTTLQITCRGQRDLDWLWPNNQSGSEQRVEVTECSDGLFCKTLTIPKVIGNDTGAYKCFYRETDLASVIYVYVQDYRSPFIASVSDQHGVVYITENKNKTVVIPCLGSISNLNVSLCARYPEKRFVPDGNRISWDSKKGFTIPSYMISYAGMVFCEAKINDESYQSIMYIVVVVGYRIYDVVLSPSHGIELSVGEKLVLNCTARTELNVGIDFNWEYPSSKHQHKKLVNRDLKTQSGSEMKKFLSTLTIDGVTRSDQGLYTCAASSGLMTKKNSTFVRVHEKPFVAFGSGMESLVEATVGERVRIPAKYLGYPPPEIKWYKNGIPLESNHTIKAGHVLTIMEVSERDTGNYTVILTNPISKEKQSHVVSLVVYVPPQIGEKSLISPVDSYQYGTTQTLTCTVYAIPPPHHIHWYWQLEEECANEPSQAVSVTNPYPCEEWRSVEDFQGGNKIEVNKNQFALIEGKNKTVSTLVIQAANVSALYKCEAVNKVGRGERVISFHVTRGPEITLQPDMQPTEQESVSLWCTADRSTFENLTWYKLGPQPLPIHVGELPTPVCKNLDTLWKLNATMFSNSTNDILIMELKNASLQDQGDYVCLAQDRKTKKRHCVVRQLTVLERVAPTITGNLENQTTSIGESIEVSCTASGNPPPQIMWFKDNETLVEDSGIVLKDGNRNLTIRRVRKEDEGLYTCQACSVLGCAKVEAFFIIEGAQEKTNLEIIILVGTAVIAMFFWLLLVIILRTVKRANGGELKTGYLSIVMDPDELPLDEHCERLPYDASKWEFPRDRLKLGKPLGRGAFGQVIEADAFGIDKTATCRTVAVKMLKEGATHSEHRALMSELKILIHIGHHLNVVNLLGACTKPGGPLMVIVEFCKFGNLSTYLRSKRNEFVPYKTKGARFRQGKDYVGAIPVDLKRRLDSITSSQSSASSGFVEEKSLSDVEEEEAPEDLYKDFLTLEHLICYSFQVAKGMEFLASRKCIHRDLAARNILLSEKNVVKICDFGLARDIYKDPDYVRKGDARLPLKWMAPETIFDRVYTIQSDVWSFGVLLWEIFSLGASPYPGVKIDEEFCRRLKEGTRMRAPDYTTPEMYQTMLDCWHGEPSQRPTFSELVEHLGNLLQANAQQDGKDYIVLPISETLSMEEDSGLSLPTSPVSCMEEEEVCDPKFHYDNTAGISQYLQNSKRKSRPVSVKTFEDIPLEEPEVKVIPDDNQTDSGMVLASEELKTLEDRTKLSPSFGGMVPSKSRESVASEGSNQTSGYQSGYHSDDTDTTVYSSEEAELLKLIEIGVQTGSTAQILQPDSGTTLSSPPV
Chain of CYP2C9 (P11712 whole entry): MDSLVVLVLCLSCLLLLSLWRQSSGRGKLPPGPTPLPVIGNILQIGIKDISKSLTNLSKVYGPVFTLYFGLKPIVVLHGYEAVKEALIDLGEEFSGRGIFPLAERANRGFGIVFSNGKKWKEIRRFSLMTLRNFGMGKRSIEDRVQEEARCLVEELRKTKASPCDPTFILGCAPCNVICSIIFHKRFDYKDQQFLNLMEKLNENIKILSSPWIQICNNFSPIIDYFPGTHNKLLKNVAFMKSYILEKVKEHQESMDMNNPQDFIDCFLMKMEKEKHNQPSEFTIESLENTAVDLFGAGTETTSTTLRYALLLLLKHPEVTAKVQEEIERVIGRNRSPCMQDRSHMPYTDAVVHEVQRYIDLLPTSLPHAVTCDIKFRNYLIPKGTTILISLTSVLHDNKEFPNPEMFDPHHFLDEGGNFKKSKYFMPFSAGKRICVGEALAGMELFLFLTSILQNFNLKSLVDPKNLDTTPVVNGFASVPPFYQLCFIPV
Chain of CYP2C8 (P10632 whole entry): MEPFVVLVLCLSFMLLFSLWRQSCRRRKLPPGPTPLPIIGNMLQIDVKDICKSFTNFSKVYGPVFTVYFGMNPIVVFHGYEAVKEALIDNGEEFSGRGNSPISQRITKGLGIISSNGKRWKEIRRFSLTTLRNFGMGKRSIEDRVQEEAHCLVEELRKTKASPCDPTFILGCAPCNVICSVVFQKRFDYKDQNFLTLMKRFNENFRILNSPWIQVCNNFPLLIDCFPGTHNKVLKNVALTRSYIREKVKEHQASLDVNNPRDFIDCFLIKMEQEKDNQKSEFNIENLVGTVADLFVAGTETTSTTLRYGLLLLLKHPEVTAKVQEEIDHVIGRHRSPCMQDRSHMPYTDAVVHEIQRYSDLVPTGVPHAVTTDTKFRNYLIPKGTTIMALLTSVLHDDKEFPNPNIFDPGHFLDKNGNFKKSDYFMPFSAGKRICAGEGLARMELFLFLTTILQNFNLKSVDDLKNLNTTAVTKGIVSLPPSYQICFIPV
Chain of CYP1A2 (P05177 whole entry): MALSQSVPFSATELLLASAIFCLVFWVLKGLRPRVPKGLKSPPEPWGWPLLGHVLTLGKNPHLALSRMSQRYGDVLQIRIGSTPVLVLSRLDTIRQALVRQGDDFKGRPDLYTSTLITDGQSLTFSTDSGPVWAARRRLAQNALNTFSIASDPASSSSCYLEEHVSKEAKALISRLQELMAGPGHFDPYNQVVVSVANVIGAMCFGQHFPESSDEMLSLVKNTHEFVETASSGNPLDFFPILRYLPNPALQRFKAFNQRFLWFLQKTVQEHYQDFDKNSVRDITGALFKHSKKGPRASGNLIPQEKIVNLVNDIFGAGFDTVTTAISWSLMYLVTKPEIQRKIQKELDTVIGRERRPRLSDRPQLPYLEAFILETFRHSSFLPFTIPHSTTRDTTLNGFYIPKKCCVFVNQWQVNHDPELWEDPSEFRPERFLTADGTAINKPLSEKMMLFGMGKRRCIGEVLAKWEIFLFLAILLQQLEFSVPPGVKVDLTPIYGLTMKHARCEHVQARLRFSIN
Chain of CYP2D6 (P10635 whole entry): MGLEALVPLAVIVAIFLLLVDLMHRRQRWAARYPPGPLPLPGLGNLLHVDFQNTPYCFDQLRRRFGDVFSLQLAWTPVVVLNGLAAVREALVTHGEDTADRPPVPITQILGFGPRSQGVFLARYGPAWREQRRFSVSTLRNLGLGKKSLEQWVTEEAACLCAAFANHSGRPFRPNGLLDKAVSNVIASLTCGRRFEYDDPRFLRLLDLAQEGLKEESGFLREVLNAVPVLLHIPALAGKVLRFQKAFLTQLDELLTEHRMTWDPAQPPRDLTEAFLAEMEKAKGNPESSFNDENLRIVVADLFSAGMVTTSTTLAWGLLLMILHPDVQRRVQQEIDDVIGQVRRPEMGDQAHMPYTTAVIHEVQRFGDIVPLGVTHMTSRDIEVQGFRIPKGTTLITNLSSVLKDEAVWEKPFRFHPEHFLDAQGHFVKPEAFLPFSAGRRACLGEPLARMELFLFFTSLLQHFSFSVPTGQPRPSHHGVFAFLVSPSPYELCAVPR
Chain of EPHB2 (P29323 19-1055): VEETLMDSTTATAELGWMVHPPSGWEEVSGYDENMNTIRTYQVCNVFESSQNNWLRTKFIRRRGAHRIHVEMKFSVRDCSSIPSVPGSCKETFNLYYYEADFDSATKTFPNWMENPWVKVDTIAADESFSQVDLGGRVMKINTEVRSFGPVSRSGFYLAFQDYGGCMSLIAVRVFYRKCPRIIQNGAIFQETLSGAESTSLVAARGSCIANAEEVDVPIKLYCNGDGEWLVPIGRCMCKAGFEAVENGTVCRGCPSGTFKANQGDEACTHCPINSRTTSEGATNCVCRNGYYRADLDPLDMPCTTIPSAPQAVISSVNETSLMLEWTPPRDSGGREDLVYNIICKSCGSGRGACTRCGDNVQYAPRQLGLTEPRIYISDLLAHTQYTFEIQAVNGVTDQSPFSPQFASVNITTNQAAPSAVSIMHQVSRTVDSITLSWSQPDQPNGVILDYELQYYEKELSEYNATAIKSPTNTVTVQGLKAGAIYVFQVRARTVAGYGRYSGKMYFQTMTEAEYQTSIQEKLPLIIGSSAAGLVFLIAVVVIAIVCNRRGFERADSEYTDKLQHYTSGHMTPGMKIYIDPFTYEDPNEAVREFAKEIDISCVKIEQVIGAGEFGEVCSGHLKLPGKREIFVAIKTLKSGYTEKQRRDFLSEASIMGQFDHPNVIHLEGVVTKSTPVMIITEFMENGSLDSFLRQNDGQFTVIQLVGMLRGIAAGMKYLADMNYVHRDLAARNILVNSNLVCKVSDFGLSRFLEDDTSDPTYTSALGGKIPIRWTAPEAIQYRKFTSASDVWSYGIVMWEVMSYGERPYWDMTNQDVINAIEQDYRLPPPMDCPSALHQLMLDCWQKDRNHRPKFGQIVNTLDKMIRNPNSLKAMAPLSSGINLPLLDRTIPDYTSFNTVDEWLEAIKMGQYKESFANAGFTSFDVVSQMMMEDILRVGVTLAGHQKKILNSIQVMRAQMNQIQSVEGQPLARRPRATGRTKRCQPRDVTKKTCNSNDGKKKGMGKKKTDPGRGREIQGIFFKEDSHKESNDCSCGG
Chain of CYP3A4 (P08684 whole entry): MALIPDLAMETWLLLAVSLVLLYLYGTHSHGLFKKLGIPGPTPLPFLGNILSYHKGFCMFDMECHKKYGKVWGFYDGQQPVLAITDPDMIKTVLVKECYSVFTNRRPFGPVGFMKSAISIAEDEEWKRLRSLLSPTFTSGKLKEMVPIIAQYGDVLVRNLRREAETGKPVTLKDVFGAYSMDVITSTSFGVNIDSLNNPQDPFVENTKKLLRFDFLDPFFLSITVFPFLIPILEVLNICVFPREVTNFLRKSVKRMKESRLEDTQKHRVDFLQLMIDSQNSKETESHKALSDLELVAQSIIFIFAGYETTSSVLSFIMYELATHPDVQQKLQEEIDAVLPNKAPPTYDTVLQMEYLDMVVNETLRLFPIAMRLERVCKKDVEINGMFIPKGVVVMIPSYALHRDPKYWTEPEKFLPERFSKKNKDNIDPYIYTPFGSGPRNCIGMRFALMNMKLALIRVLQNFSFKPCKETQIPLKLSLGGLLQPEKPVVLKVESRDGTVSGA

CS(=O)(=O)O.Cc1ccc(C(=O)Nc2ccc(CN3CCN(C)CC3)c(C(F)(F)F)c2)cc1C#Cc1nnc2ccccn12 [methanesulfonic acid salt, 3-(1,2,4-triazolo[4,3-a]pyridine-3-ylethynyl)-4-methyl-N-(4-((4-methylpiperazin-1-yl)methyl)-3-trifluoromethylphenyl)benzamide mono methanesulfonic acid salt]
participation of the isoform in metabolism (CYP2C9): does not involve | participation of the isoform in metabolism (CYP2D6): does not involve | IC50 (SupB15): 50 nM | solubility thermodynamic (physchem [1]): > 100 mg/mL | IC50 (BaF3/BCR-ABL): 5 nM | inhibition at 0.1 µM (EPHB2): > 50% | IC50 (BV-173): 5 nM | genotoxic effects (Gene toxicity: Ames test): had no genotoxic effects | participation of the isoform in metabolism (CYP1A2): does not involve | participation of the isoform in metabolism (CYP2C8): does not involve | time for 95% to transfer to the solution [2]: less than one minute | time to full dissolution [2]: less than 4 minutes | inhibition at 0.1 µM (KDR/VEGFR2): > 50% | IC50 (Bcr-Abl (M351T)): 2.8 nM | IC50 (Bcr-Abl (E255K)): 9.5 nM | Apparent solubility (physchem [3]): >46 mg/mL | solubility (physchem [3]; deionized water, RT, read-out: Apparent solubility): > 46 mg/mL | IC50 (Bcr-Abl (Q252H)): 12 nM | half-life (in vivo; mouse, in vivo, read-out: half-life period (converted)): ~3 h | AUC (in vivo; mouse, in vivo, oral, 5 mg/kg): 372 ng·h/mL | AUC (in vivo; mouse, in vivo, oral, 50 mg/kg): 12100 ng·h/mL | maximum concentration (in vivo; oral, 5 mg/kg): 82 ng/mL | maximum concentration (in vivo; oral, 50 mg/kg): 1,099 ng/mL | period of absorption to maximum concentration (in vivo; oral, 5 to 50 mg/kg): 2 to 4 h | LD10 (rats; calculated as a free base): 1,695 mg/kg | LD10 (rats; dose of the salt): 2,000 mg/kg | IC50 (Bcr-Abl (F317I)): 2 nM | participation of the isoform in metabolism (CYP3A4): involves participation | Kp ([4]; bone marrow, read-out: concentration in bone marrow relative to plasma): 27 | Kp ([4]; brain, read-out: exposure in brain relative to blood plasma exposure): ~0.2 | Kp ([4]; kidneys, read-out: concentration in kidneys relative to plasma): 34 | Kp ([4]; liver, read-out: concentration in liver relative to plasma): 21 | Kp ([4]; lungs, read-out: concentration in lungs relative to blood plasma): ~71 | Kp ([4]; spleen, read-out: concentration in spleen relative to plasma): 45 | Crystallinity in 7 days ([5]; 7 days at T = 60° C.): Cryst. | Relative peak area, in 7 days ([5]; 7 days at T = 60° C.): 99.7% | Relative peak area, initial ([5]; before storage): 99.7% | content of impurities ([5]; kept seven days at 60° C.): remained constant
